Data set [1] is filed under the species Mus musculus. Put plainly: Biodistribution in C57BL/6 mouse blood after 30 mins. It is filed as ADME, organism-based. As to conditions: in vivo, 0.5 h.
For data set [2], the system named is B16. Put plainly: Decrease in transfection efficacy in […] B16 cells assessed by luciferase assay. It counts as functional, cell-based.

Calls of active or inactive are those of the source. No cut-off for these calls is given here.

In data set [1], `CCCCCCCCCCCCCCN(CCCCCCCCCCCCCC)C(=O)CNC(=O)CNCCCN(CCCN)CCCN.Cl.Cl.Cl.Cl` gave an Activity of 2.7%.

On to `CCCCCCCCCCCCCCCCCCN(CCCCCCCCCCCCCCCCCC)C(=O)CNC(=O)CNC(=O)CNC(=O)OCC(COC(CO)CO)COC(CO)CO`, for which the result in data set [2] was Active. This compound also showed an Activity in data set [1] of 8%.

The values are drawn from ChEMBL document CHEMBL1147894, “Amphiphilic polyether branched molecules to increase the circulation time of cationic particles” (Bioorg Med Chem, 2007).
